Reference: US10350210B2, “EGFR and ALK dual inhibitor” (PRECEDO PHARMACEUTICALS CO., LTD, priority 2015, dated 2019)

Experiments:
[1] = tested on: EGFR protein (wild-type EGFR, A549); test: Effect on signaling pathway in cells, A549; assay type: cell-based, human; conditions: 0.03-3 μM, 4 h
Source text: (§1) In four cell lines (all purchased from ATCC) including non-small cell lung cancer cell line A549 (expressing wild-type EGFR gene), non-small cell lung cancer cell line H1975 (expressing EGFR L858R/T790M double mutant gene), non-small cell lung cancer cell line H3255 (expressing EGFR L858R mutant gene) and non-small cell lung cancer cell line PC-9 (expressing EGFR delE746_A750 mutant gene), the effect of Compound 1 on EGFR or other protein kinases related to signaling pathways of EGFR such as Stat3, AKT, ErK, eIF4E, 4EBP1, P70S6K was assessed by assaying a number of cellular biochemical and functional endpoints. […] The effect of Compound 1 on phosphorylation of Stat3Y705, AKT T308, AKT 5473, Erk T202/204, EGFR Y1068, P70S6K Thr389, eIF4E Ser209, Erk T202/204, 4EBP1 (Thr37/46) in these cell lines was assayed (FIGS. 1a to 1d).

[2] = tested on: A549; test: Effect on cell apoptosis (Western Blot, PARP and Caspase 3 cleavage), A549; assay type: cell-based, human; conditions: A549 (wild-type EGFR), 24 hours
Source text: (§2) In order to confirm whether the death of cells is through apoptosis or necrosis after administration of drugs, non-small cell lung cancer cell A549 (expressing wild-type EGFR gene), non-small cell lung cancer cell line H1975 (expressing EGFR L858R/T790M double mutant gene), non-small cell lung cancer cell line H3255 (expressing EGFR L858R mutant gene), non-small cell lung cancer cell line H3122 (expressing ALK gene) cell line, and non-small cell lung cancer cell line PC-9 (expressing EGFR delE746_A750 mutant gene) were tested for effect of Compound 1 on cleavage of poly ADP-ribose polymerase PARP which is a DNA repair enzyme and Caspase 3, which were closely related to cell apoptosis. […] Western Blot was used to detect the effect of various concentrations of drugs at various time points on cleavage of poly ADP-ribose polymerase PARP which is a DNA repair enzyme and Caspase 3.

[3] = tested on: EGFR protein (EGFR L858R, H3255); test: Effect on signaling pathway in cells, H3255; assay type: cell-based; conditions: 4 h
Source text: as §1

[4] = tested on: A549; test: Effect on cell cycle (PI staining, flow cytometer), A549; assay type: cell-based, human; conditions: A549 (wild-type EGFR), 24 hours and 48 hours
Source text: In order to study which growth phase the cell was halted after administration of the drugs, five cell lines including non-small cell lung cancer cell line A549 (expressing wild-type EGFR gene), non-small cell lung cancer cell line H1975 (expressing EGFR L858R/T790M double mutant gene), non-small cell Lung cancer cell line PC-9 (expressing EGFR delE746_A750 mutant gene), non-small cell lung cancer cell line H3255 (expressing EGFR L858R mutant gene) and non-small cell lung cancer cell NCI-H3122 (expressing ALK gene) were tested for effect of Compound 1 on cell cycle distribution. Two cell lines including non-small cell lung cancer cell NCI-H3122 (expressing ALK gene) and non-small cell lung cancer cell H1975 (expressing EGFR L858R/T790M double mutant gene) were tested for effect of Compound 10 on cell cycle distribution. […]

[5] = tested on: PC-9; test: Effect on cell apoptosis (Western Blot, PARP and Caspase 3 cleavage), PC-9; assay type: cell-based, human; conditions: PC-9 (EGFR delE746_A750), 24 hours
Source text: as §2

Q: Which results are given for `C=CC(=O)Nc1cc(Nc2ncc(Cl)c(Nc3ccccc3S(=O)(=O)C(C)C)n2)c(OC)cc1N1CCN(CC)CC1` [Compound 1, N-(5-(5-chloro-4-(2-(isopropylsulfonyl)phenylamino)pyrimidin-2-ylamino)-2-(4-ethylpiperazin-1-yl)-4-methoxyphenyl)acrylamide]?
A: effect on phosphorylation of EGFR protein and of STAT3, S6K, AKT, ERK, eIF4E [1]: little effect; cleavage of PARP or Caspase 3 (apoptosis) [2]: not observed; concentration able to significantly inhibit the phosphorylation of EGFR protein (also affects AKT and ERK phosphorylation) [3]: 0.3 µM; effect on cell cycle [4]: certain effect; concentration at which evident cleavage of PARP and Caspase 3 could be observed [5]: 0.3 µM
